# Data: ChEMBL document CHEMBL1201862, “PubChem BioAssay data set” (2004)
#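 Where inhibition never reached the appropriate level, the endpoint shown equals the highest concentration tested. Otherwise, values were interpolated linearly from a five-concentration, 48-hour dose response in 96-well plates. GI50 = concentration required for 50% inhibition of growth.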 Calls of active or inactive are those of the source. Rule as the data show it: active = GI50 up to about 1.1 µM and inactive = higher.
# How the values were obtained:
# Assay in all cases: NCI tumour cell line growth inhibition, 48 h
# [1] = tested on: 786-0
# [2] = tested on: A498
# [3] = tested on: A549
# [4] = tested on: ACHN
# [5] = tested on: BT-549
# [6] = tested on: CAKI-1
# [7] = tested on: CCRF-CEM
# [8] = tested on: COLO 205
# [9] = tested on: DU-145
# [10] = tested on: EKVX
# [11] = tested on: HCC 2998
# [12] = tested on: HCT-116
# [13] = tested on: HCT-15
# [14] = tested on: HL-60
# [15] = tested on: HOP-62
# [16] = tested on: HOP-92
# [17] = tested on: HT-29
# [18] = tested on: Hs-578T
# [19] = tested on: IGROV-1
# [20] = tested on: K562
# [21] = tested on: KM12
# [22] = tested on: LOX IMVI
# [23] = tested on: M14
# [24] = tested on: MCF7
# [25] = tested on: MDA-MB-231
# [26] = tested on: MDA-MB-435
# [27] = tested on: MDA-N
# [28] = tested on: MOLT-4
# [29] = tested on: Malme-3M
# [30] = tested on: NCI-H226
# [31] = tested on: NCI-H23
# [32] = tested on: NCI-H460
# [33] = tested on: NCI-H522
# [34] = tested on: NCI/ADR-RES
# [35] = tested on: OVCAR-3
# [36] = tested on: OVCAR-4
# [37] = tested on: OVCAR-5
# [38] = tested on: OVCAR-8
# [39] = tested on: PC-3
# [40] = tested on: RPMI-8226
# [41] = tested on: RXF 393
# [42] = tested on: SF-268
# [43] = tested on: SF-295
# [44] = tested on: SF-539
# [45] = tested on: SK-MEL-28
# [46] = tested on: SK-MEL-2
# [47] = tested on: SK-MEL-5
# [48] = tested on: SK-OV-3
# [49] = tested on: SN12C
# [50] = tested on: SNB-19
# [51] = tested on: SNB-75
# [52] = tested on: SW-620
# [53] = tested on: T47D
# [54] = tested on: TK-10
# [55] = tested on: U-251
# [56] = tested on: UACC-257
# [57] = tested on: UACC-62
# [58] = tested on: UO-31
structure (smiles),measurement,setting,value
COc1cc(N(C)C)c(OC)cc1/C=C\c1ccnc2ccccc12,GI50,[1],4.49 µM (inactive)
same,GI50,[2],3.1 µM (inactive)
same,GI50,[3],7.11 µM (inactive)
same,GI50,[4],6.12 µM (inactive)
same,GI50,[5],4.34 µM (inactive)
same,GI50,[6],6.38 µM (inactive)
same,GI50,[7],3.56 µM (inactive)
same,GI50,[8],3.55 µM (inactive)
same,GI50,[9],3.46 µM (inactive)
same,GI50,[10],2.26 µM (inactive)
same,GI50,[11],3.62 µM (inactive)
same,GI50,[12],3.09 µM (inactive)
same,GI50,[13],0.652 µM
same,GI50,[14],3.7 µM (inactive)
same,GI50,[15],4.94 µM (inactive)
same,GI50,[16],2.74 µM (inactive)
same,GI50,[17],3.1 µM (inactive)
same,GI50,[18],3.25 µM (inactive)
same,GI50,[19],0.824 µM (active)
same,GI50,[20],4.01 µM (inactive)
same,GI50,[21],0.46 µM (active)
same,GI50,[22],0.746 µM (active)
same,GI50,[23],4.93 µM (inactive)
same,GI50,[24],0.462 µM (active)
same,GI50,[25],2.8 µM (inactive)
same,GI50,[26],1.75 µM (inactive)
same,GI50,[27],1.71 µM (inactive)
same,GI50,[28],3.4 µM (inactive)
same,GI50,[29],4.86 µM (inactive)
same,GI50,[30],8.83 µM (inactive)
same,GI50,[31],3.86 µM (inactive)
same,GI50,[32],2.96 µM (inactive)
same,GI50,[33],4.38 µM (inactive)
same,GI50,[34],2.56 µM (inactive)
same,GI50,[35],1.72 µM (inactive)
same,GI50,[36],> 10 µM (inactive)
same,GI50,[37],> 10 µM (inactive)
same,GI50,[38],9.44 µM (inactive)
same,GI50,[39],2.92 µM (inactive)
same,GI50,[40],2.71 µM (inactive)
same,GI50,[41],> 10 µM (inactive)
same,GI50,[42],3.63 µM (inactive)
same,GI50,[43],2.86 µM (inactive)
same,GI50,[44],2.33 µM (inactive)
same,GI50,[45],1.86 µM (inactive)
same,GI50,[46],2.66 µM (inactive)
same,GI50,[47],0.815 µM (active)
same,GI50,[48],> 10 µM (inactive)
same,GI50,[49],6.32 µM (inactive)
same,GI50,[50],> 10 µM (inactive)
same,GI50,[51],2.57 µM (inactive)
same,GI50,[52],4.68 µM (inactive)
same,GI50,[53],0.344 µM (active)
same,GI50,[54],2.12 µM (inactive)
same,GI50,[55],5.04 µM (inactive)
same,GI50,[56],3.73 µM (inactive)
same,GI50,[57],3.39 µM (inactive)
same,GI50,[58],> 10 µM (inactive)
Cc1ccc(C)c2c1n1c(=O)n(C)c(=O)n21,GI50,[1],> 100 µM (inactive)
same,GI50,[2],> 100 µM (inactive)
same,GI50,[3],> 100 µM (inactive)
same,GI50,[4],> 100 µM (inactive)
same,GI50,[5],> 100 µM (inactive)
same,GI50,[6],> 100 µM (inactive)
same,GI50,[7],> 100 µM (inactive)
same,GI50,[8],> 100 µM (inactive)
same,GI50,[9],> 100 µM (inactive)
same,GI50,[10],> 100 µM (inactive)
same,GI50,[11],> 100 µM (inactive)
same,GI50,[12],> 100 µM (inactive)
same,GI50,[13],> 100 µM
same,GI50,[14],> 100 µM (inactive)
same,GI50,[16],> 100 µM (inactive)
same,GI50,[17],> 100 µM (inactive)
same,GI50,[18],> 100 µM (inactive)
same,GI50,[19],> 100 µM (inactive)
same,GI50,[21],> 100 µM (inactive)
same,GI50,[22],> 100 µM (inactive)
same,GI50,[23],> 100 µM (inactive)
same,GI50,[24],> 100 µM (inactive)
same,GI50,[25],> 100 µM (inactive)
same,GI50,[26],> 100 µM (inactive)
same,GI50,[27],> 100 µM (inactive)
same,GI50,[29],> 100 µM (inactive)
same,GI50,[30],> 100 µM (inactive)
same,GI50,[31],> 100 µM (inactive)
same,GI50,[32],> 100 µM (inactive)
same,GI50,[33],> 100 µM (inactive)
same,GI50,[34],> 100 µM (inactive)
same,GI50,[35],> 100 µM (inactive)
same,GI50,[36],> 100 µM (inactive)
same,GI50,[37],> 100 µM (inactive)
same,GI50,[38],> 100 µM (inactive)
same,GI50,[39],> 100 µM (inactive)
same,GI50,[40],> 100 µM (inactive)
same,GI50,[41],> 100 µM (inactive)
same,GI50,[42],> 100 µM (inactive)
same,GI50,[43],> 100 µM (inactive)
same,GI50,[44],> 100 µM (inactive)
same,GI50,[45],> 100 µM (inactive)
same,GI50,[46],> 100 µM (inactive)
same,GI50,[47],> 100 µM (inactive)
same,GI50,[48],> 100 µM (inactive)
same,GI50,[49],> 100 µM (inactive)
same,GI50,[50],> 100 µM (inactive)
same,GI50,[51],> 100 µM (inactive)
same,GI50,[52],> 100 µM (inactive)
same,GI50,[53],> 100 µM (inactive)
same,GI50,[54],> 100 µM (inactive)
same,GI50,[55],> 100 µM (inactive)
same,GI50,[56],> 100 µM (inactive)
same,GI50,[57],> 100 µM (inactive)
same,GI50,[58],> 100 µM (inactive)
